Patent publication US10123993B2, “Cyclic ureas as inhibitors of rock” (BRISTOL-MYERS SQUIBB COMPANY, priority 2015, dated 2018)
pIC50: −log10 of the molar value.

target: ROCK2 (Homo sapiens, UniProt O75116); experiment: ROCK2 kinase inhibition assay (Caliper LABCHIP, FITC peptide substrate); format: biochemical; details: 5 μM ATP, 1.5 μM peptide substrate; value ranges
How it was run: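 Dose-response curves gave IC50 from inhibition of peptide phosphorylation, measured by LabChip separation after EDTA stop. Reactions used 1.5 μM FITC-labelled peptide, 5 μM ATP, 20 mM HEPES pH 7.5 with MgCl2, Brij-35, DTT, and under 2% DMSO.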

Sequence of ROCK2 (O75116 whole entry, species assumed): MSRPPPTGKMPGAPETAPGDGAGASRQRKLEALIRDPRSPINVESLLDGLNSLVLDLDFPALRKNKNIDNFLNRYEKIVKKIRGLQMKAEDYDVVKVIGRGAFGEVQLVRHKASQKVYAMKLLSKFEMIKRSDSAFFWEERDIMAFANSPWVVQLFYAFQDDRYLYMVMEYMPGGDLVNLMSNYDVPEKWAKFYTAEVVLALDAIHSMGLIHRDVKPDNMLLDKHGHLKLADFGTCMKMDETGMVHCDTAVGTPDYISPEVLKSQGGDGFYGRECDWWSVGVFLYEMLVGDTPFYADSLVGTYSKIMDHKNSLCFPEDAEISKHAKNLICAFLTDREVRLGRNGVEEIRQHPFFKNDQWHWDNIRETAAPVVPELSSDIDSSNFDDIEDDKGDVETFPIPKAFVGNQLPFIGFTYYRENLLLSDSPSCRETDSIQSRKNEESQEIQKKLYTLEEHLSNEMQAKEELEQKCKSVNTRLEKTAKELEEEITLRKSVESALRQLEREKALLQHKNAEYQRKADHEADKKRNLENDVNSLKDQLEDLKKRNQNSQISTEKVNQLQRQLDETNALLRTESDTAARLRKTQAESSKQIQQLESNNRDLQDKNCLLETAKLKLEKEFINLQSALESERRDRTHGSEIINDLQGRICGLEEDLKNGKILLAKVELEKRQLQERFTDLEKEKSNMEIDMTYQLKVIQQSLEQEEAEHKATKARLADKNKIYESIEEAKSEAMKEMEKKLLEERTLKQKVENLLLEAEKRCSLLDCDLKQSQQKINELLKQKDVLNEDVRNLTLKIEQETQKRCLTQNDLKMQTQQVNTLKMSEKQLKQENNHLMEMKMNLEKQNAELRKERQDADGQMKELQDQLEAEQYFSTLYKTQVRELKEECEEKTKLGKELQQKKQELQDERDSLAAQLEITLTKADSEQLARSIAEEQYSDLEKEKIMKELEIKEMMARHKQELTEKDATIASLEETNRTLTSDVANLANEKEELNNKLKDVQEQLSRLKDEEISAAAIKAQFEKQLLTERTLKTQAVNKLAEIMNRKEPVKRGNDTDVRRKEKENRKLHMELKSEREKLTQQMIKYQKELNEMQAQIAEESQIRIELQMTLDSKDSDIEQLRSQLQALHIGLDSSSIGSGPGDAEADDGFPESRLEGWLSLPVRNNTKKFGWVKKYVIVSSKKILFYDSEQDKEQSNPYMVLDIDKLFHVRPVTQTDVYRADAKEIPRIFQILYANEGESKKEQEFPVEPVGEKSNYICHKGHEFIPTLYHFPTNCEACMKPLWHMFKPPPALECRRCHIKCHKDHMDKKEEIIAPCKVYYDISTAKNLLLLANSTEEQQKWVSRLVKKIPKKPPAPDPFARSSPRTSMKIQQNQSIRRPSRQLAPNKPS

SMILES | pIC50
COc1cccc(C(C)n2ccn(-c3ccc(-c4ccncc4F)cc3)c2=O)c1 (single isomer, unassigned) [Example 387, 1-(4-(3-fluoropyridin-4-yl)phenyl)-3-(1-(3-methoxyphenyl)ethyl)-1H-imidazol-2(3H)-one] | 6.70 to 7.70
CCc1nc(-n2ccn(C(C)c3ccc(F)c(OC)c3)c2=O)ccc1-c1cn[nH]c1 (single isomer, unassigned) [Example 388, 1-(6-ethyl-5-(1H-pyrazol-4-yl)pyridin-2-yl)-3-(1-(4-fluoro-3-methoxyphenyl)ethyl)-1H-imidazol-2(3H)-one] | 7.70 to 8.68
COc1cc(C(C)n2ccn(-c3ccc(-c4cn[nH]c4)c(OC)n3)c2=O)ccc1F (single isomer, unassigned) [Example 389, 1-(1-(4-fluoro-3-methoxyphenyl)ethyl)-3-(6-methoxy-5-(1H-pyrazol-4-yl)pyridin-2-yl)-1H-imidazol-2(3H)-one] | > 8.70
COc1cc(C(C)n2ccn(-c3ccc(-c4cn[nH]c4)c(OC)n3)c2=O)ccc1F (single isomer, unassigned) [Example 390, 1-(1-(4-fluoro-3-methoxyphenyl)ethyl)-3-(6-methoxy-5-(1H-pyrazol-4-yl)pyridin-2-yl)-1H-imidazol-2(3H)-one] | 6.70 to 7.70
COc1cc(C(C)n2ccn(-c3ccc(-c4cn[nH]c4)cc3)c2=O)ccc1F (single isomer, unassigned) [Example 391, 1-(4-(1H-pyrazol-4-yl)phenyl)-3-(1-(4-fluoro-3-methoxyphenyl)ethyl)-1H-imidazol-2(3H)-one] | 7.70 to 8.68
COc1cc(C(C)n2ccn(-c3ccc(-c4cn[nH]c4)cc3)c2=O)ccc1F (single isomer, unassigned) [Example 392, 1-(4-(1H-pyrazol-4-yl)phenyl)-3-(1-(4-fluoro-3-methoxyphenyl)ethyl)-1H-imidazol-2(3H)-one] | 5.70 to 6.70
COc1cc(F)cc(C(C)n2ccn(-c3ccc(-c4cn[nH]c4)cn3)c2=O)c1 (single isomer, unassigned) [Example 393, 1-(5-(1H-pyrazol-4-yl)pyridin-2-yl)-3-(1-(3-fluoro-5-methoxyphenyl)ethyl)-1H-imidazol-2(3H)-one] | 7.70 to 8.68
COc1cc(F)cc(C(C)n2ccn(-c3ccc(-c4cn[nH]c4)cn3)c2=O)c1 (single isomer, unassigned) [Example 394, 1-(5-(1H-pyrazol-4-yl)pyridin-2-yl)-3-(1-(3-fluoro-5-methoxyphenyl)ethyl)-1H-imidazol-2(3H)-one] | 6.70 to 7.70
COc1cc(F)cc(C(C)n2ccn(-c3ccc(-c4cn[nH]c4)c(OC)n3)c2=O)c1 (single isomer, unassigned) [Example 397, 1-(1-(3-fluoro-5-methoxyphenyl)ethyl)-3-(6-methoxy-5-(1H-pyrazol-4-yl)pyridin-2-yl)-1H-imidazol-2(3H)-one] | > 8.70
COc1cc(F)cc(C(C)n2ccn(-c3ccc(-c4cn[nH]c4)c(OC)n3)c2=O)c1 (single isomer, unassigned) [Example 398, 1-(1-(3-fluoro-5-methoxyphenyl)ethyl)-3-(6-methoxy-5-(1H-pyrazol-4-yl)pyridin-2-yl)-1H-imidazol-2(3H)-one] | 7.70 to 8.68
COc1cccc(C(C)n2ccn(-c3ccc(-c4ccnc(N)n4)cc3)c2=O)c1 (single isomer, unassigned) [Example 399, 1-(4-(2-aminopyrimidin-4-yl)phenyl)-3-(1-(3-methoxyphenyl)ethyl)-1H-imidazol-2(3H)-one] | 7.70 to 8.68
COc1cccc(C(C)n2ccn(-c3ccc(-c4cn[nH]c4)c(OC)n3)c2=O)c1 (single isomer, unassigned) [Example 400, 1-(6-methoxy-5-(1H-pyrazol-4-yl)pyridin-2-yl)-3-(1-(3-methoxyphenyl)ethyl)-1H-imidazol-2(3H)-one] | > 8.70
COc1cccc(C(C)n2ccn(-c3ccc(-c4cn[nH]c4)c(OC)n3)c2=O)c1 (single isomer, unassigned) [Example 401, 1-(6-methoxy-5-(1H-pyrazol-4-yl)pyridin-2-yl)-3-(1-(3-methoxyphenyl)ethyl)-1H-imidazol-2(3H)-one] | 7.70 to 8.68
COc1cccc(C(C)N2CCN(c3ccc(-c4cn[nH]c4)cn3)C2=O)c1 (single isomer, unassigned) [Example 459, 1-(5-(1H-pyrazol-4-yl)pyridin-2-yl)-3-(1-(3-methoxyphenyl)ethyl)imidazolidin-2-one] | 6.70 to 7.70
COc1cccc(C(C)N2CCN(c3ccc(-c4cn[nH]c4)cn3)C2=O)c1 (single isomer, unassigned) [Example 460, 1-(5-(1H-pyrazol-4-yl)pyridin-2-yl)-3-(1-(3-methoxyphenyl)ethyl)imidazolidin-2-one] | > 8.70
COc1cccc(C(CO)N2CCN(c3ccc(-c4cn[nH]c4)cn3)C2=O)c1 (single isomer, unassigned) [Example 461, 1-(5-(1H-pyrazol-4-yl)pyridin-2-yl)-3-(2-hydroxy-1-(3-methoxyphenyl)ethyl)imidazolidin-2-one] | > 8.70
COc1cccc(C(CO)N2CCN(c3ccc(-c4cn[nH]c4)cn3)C2=O)c1 (single isomer, unassigned) [Example 462, 1-(5-(1H-pyrazol-4-yl)pyridin-2-yl)-3-(2-hydroxy-1-(3-methoxyphenyl)ethyl)imidazolidin-2-one] | 6.70 to 7.70
COc1cccc(C(C)N2CCN(c3cc(C)c(-c4cn[nH]c4)cn3)C2=O)c1 (single isomer, unassigned) [Example 470, 1-(1-(3-methoxyphenyl)ethyl)-3-(4-methyl-5-(1H-pyrazol-4-yl)pyridin-2-yl)imidazolidin-2-one] | 6.70 to 7.70
COc1cccc(C(C)N2CCN(c3cc(C)c(-c4cn[nH]c4)cn3)C2=O)c1 (single isomer, unassigned) [Example 471, 1-(1-(3-methoxyphenyl)ethyl)-3-(4-methyl-5-(1H-pyrazol-4-yl)pyridin-2-yl)imidazolidin-2-one] | 6.70 to 7.70
COc1cccc(CN2C(=O)N(c3ccc(-c4cn[nH]c4)cc3)CC2C(C)(C)O)c1 (single isomer, unassigned; (+)) [Example 45, (+)-1-(4-(1H-Pyrazol-4-yl)phenyl)-4-(2-hydroxypropan-2-yl)-3-(3-methoxybenzyl)imidazolidin-2-one] | > 8.70
CC(c1ccccc1)n1ccn(-c2ccc(-c3cn[nH]c3)cc2)c1=O (single isomer, unassigned; (+)) [Example 72, (+)-1-(4-(1H-pyrazol-4-yl)phenyl)-3-(1-phenylethyl)-1H-imidazol-2(3H)-one] | 7.70 to 8.68
COc1cccc(CN2C(=O)N(c3ccc(-c4cn[nH]c4)cc3)CC2C(C)(C)O)c1 (single isomer, unassigned; (-)) [Example 44, (−)-1-(4-(1H-Pyrazol-4-yl)phenyl)-4-(2-hydroxypropan-2-yl)-3-(3-methoxybenzyl)imidazolidin-2-one] | > 8.70
CC(c1ccccc1)n1ccn(-c2ccc(-c3cn[nH]c3)cc2)c1=O (single isomer, unassigned; (-)) [Example 73, (−)-1-(4-(1H-pyrazol-4-yl)phenyl)-3-(1-phenylethyl)-1H-imidazol-2(3H)-one] | 6.70 to 7.70

Second part, the compound after the results:

pIC50 | SMILES
> 8.70 | COc1cccc(CN2C(=O)N(c3ccc(-c4cn[nH]c4)cc3)CC2CO)c1 (single isomer, unassigned; (+)) [Example 42, (+)-1-(4-(1H-Pyrazol-4-yl)phenyl)-4-(hydroxymethyl)-3-(3-methoxybenzyl)imidazolidin-2-one]
7.70 to 8.68 | COc1cccc(CN2CC(CO)N(c3ccc(-c4cn[nH]c4)cc3)C2=O)c1 (single isomer, unassigned; (+)) [Example 48, (+)-3-(4-(1H-Pyrazol-4-yl)phenyl)-4-(hydroxymethyl)-1-(3-methoxybenzyl)imidazolidin-2-one]
> 8.70 | COc1cccc(CN2C(=O)N(c3ccc(-c4cn[nH]c4)cc3)CC2CO)c1 (single isomer, unassigned; (-)) [Example 43, (−)-1-(4-(1H-Pyrazol-4-yl)phenyl)-4-(hydroxymethyl)-3-(3-methoxybenzyl)imidazolidin-2-one]
6.70 to 7.70 | COc1cccc(CN2CC(CO)N(c3ccc(-c4cn[nH]c4)cc3)C2=O)c1 (single isomer, unassigned; (-)) [Example 47, (−)-3-(4-(1H-Pyrazol-4-yl)phenyl)-4-(hydroxymethyl)-1-(3-methoxybenzyl)imidazolidin-2-one]
7.70 to 8.68 | O=C1N(CCc2ccccc2)CCN1c1ccc(-c2cn[nH]c2)cc1 [Example 1, 1-(4-(1H-Pyrazol-4-yl)phenyl)-3-phenethylimidazolidin-2-one]
7.70 to 8.68 | COc1cccc(CN2CCN(c3ccc(-c4cn[nH]c4)cc3)C2=O)c1 [Example 2, 1-(4-(1H-pyrazol-4-yl)phenyl)-3-(3-methoxybenzyl)imidazolidin-2-one]
7.70 to 8.68 | O=C1N(Cc2ccccc2)CCN1c1ccc(-c2cn[nH]c2)cc1 [Example 3, 1-(4-(1H-pyrazol-4-yl)phenyl)-3-benzylimidazolidin-2-one]
7.70 to 8.68 | O=C1N(Cc2cccc(F)c2)CCN1c1ccc(-c2cn[nH]c2)cc1 [Example 4, 1-(4-(1H-pyrazol-4-yl)phenyl)-3-(3-fluorobenzyl)imidazolidin-2-one]
6.70 to 7.70 | O=C1N(Cc2ccc(F)cc2)CCN1c1ccc(-c2cn[nH]c2)cc1 [Example 5, 1-(4-(1H-pyrazol-4-yl)phenyl)-3-(4-fluorobenzyl)imidazolidin-2-one]
7.70 to 8.68 | COc1cc(N2CCN(Cc3cccc(F)c3)C2=O)ccc1-c1cn[nH]c1 [Example 6, 1-(3-Fluorobenzyl)-3-(3-methoxy-4-(1H-pyrazol-4-yl)phenyl)imidazolidin-2-one]
7.70 to 8.68 | COc1cccc(CN2CCN(c3ccc(-c4cn[nH]c4)c(OC)c3)C2=O)c1 [Example 7, 1-(3-Methoxy-4-(1H-pyrazol-4-yl)phenyl)-3-(3-methoxybenzyl)imidazolidin-2-one]
5.70 to 6.70 | COc1cc(N2CCN(CCc3ccc(F)cc3)C2=O)ccc1-c1cn[nH]c1 [Example 8, 1-(4-Fluorophenethyl)-3-(3-methoxy-4-(1H-pyrazol-4-yl)phenyl)imidazolidin-2-one]
